Data taken from patent US12630563B2, “Macrocyclic RIP2-kinase inhibitors” (Oncodesign S.A., priority 2020, dated 2026).

What follows are molecules tested against T1, recombinant hRIPK2 protein (kinase domain aa 1-299-His-tagged) (Homo sapiens, UniProt O43353) (assay: RIPK2 AlphaLISA assay (displacement of bead-bound CZC-8004 from hRIPK2)). Details: recombinant hRIPK2 kinase domain 10 nM, 2 h at 23° C.
T1 construct: kinase domain aa 1-299-His-tagged; purchased Life Technologies PR7829A
T1 sequence (O43353 1-299): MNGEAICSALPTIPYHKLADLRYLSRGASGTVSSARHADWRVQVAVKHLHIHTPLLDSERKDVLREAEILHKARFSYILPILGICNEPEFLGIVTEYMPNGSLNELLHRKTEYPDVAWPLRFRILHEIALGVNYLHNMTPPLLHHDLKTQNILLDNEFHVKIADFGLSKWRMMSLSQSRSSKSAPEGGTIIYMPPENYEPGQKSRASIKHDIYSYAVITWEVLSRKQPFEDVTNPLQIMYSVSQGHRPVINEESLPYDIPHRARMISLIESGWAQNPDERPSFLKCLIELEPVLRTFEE
Format: binding
Summary of the method: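 His-tagged kinase domain (10 nM, as diluted) was mixed with compound (0.8% DMSO), acceptor beads bearing the probe CZC-8004 and Ni2+ donor beads. After 2 h at 23 °C, AlphaLISA signal was read. Loss of signal reflects displacement of the probe from RIPK2.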
For `CO[C@@H]1C[C@H]2COc3ccn4ncc(c4n3)-c3cc(cc(-n4cccn4)c3)NCCN2C1=O` [Example 41, (12R,14S)-12-methoxy-4-(1H-pyrazol-1-yl)-16-oxa-7,10,20,21,24-pentaazapentacyclo[15.5.2.1^2,6.0^10,^14.0^20,^23]pentacosa-1(23),2(25),3,5,17(24),18,21-heptaen-11-one], the IC50 was < 10 nM.
`COCCO[C@@H]1C[C@H]2COc3nc4c(cnn4cc3OCC3(C)COC3)-c3cc(cc(OC)c3)NCCN2C1=O` [Example 122] was tested, and the IC50 was < 10 nM.
With `CO[C@@H]1C[C@H]2COc3nc4c(cnn4cc3F)-c3cc(F)cc(c3)NCCN2C1=O` [Example 34, (12R,14S)-4,18-difluoro-12-methoxy-16-oxa-7,10,20,21,24-pentaazapentacyclo[15.5.2.1^2,6.0^10,^14.0^20,^23]pentacosa-1(23),2(25),3,5,17(24),18,21-heptaen-11-one] the IC50 was < 10 nM.
In the case of `C#Cc1cc2cc(c1)-c1cnn3ccc(nc13)OC[C@@H]1C[C@@H](OCCOC)C(=O)N1CCN2` (racemic) [Example 118, (12R,14S)-4-ethynyl-12-(2-methoxyethoxy)-16-oxa-7,10,20,21,24-pentaazapentacyclo[15.5.2.1^2,6.0^10,^14.0^20,^23]pentacosa-1(23),2(25),3,5,17(24),18,21-heptaen-11-one], the IC50 is reported as < 10 nM.
In the case of `COc1cc2cc(c1)-c1cnn3cc(C)c(nc13)OC[C@@H]1C[C@@H](OC)C(=O)N1CCN2` [Example 19, (12R,14S)-4,12-dimethoxy-18-methyl-16-oxa-7,10,20,21,24-pentaazapentacyclo[15.5.2.1^2,6.0^10,^14.0^20,^23]pentacosa-1(23),2(25),3,5,17(24),18,21-heptaen-11-one], the IC50 is reported as < 10 nM.
With `CCOc1cc2cc(c1)-c1cnn3cc(OC)c(nc13)OC[C@@H]1C[C@@H](OCCOC)C(=O)N1CCN2` [Example 140, (12R,14S)-4-ethoxy-18-methoxy-12-(2-methoxyethoxy)-16-oxa-7,10,20,21,24-pentaazapentacyclo[15.5.2.1^2,6.0^10,^14.0^20,^23]pentacosa-1(23),2,4,6(25),17(24),18,21-heptaen-11-one] the IC50 was < 10 nM.
For `CO[C@@H]1C[C@H]2COc3ccn4ncc(c4n3)-c3cc(cc(C4CC4)c3)NCCN2C1=O` [Example 108, (12R,14S)-4-cyclopropyl-12-methoxy-16-oxa-7,10,20,21,24-pentaazapentacyclo[15.5.2.1^2,6.0^10,^14.0^20,^23]pentacosa-1(23),2,4,6(25),17(24),18,21-heptaen-11-one], the IC50 was 100 to 11000 nM.
`CO[C@@H]1C[C@H]2COc3nc4c(cnn4cc3C)-c3cc(cc(OCC4CC4)c3)NCCN2C1=O` [Example 48, (12R,14S)-4-(cyclopropylmethoxy)-12-methoxy-18-methyl-16-oxa-7,10,20,21,24-pentaazapentacyclo[15.5.2.1^2,6.0^10,^14.0^20,^23]pentacosa-1(23),2,4,6(25),17(24),18,21-heptaen-11-one] showed an IC50 of 100 to 11000 nM.
In the case of `CCO[C@H]1C[C@H]2COc3ccn4ncc(c4n3)-c3cc(cc(OC)c3)NCCN2C1=O` [Example 121, (12S,14S)-12-ethoxy-4-methoxy-16-oxa-7,10,20,21,24-pentaazapentacyclo[15.5.2.1^2,6.0^10,^14.0^20,^23]pentacosa-1(23),2,4,6(25),17(24),18,21-heptaen-11-one], the IC50 is reported as < 10 nM.
In the case of `COc1cc2cc(c1)-c1cnn3ccc(nc13)OC[C@@H]1C[C@@H](OC)C(=O)N1CCN2` [Example 5, (12R,14S)-4,12-d i methoxy-16-oxa-7,10,20,21,24-pentaazapentacyclo[15.5.2.1^2,6.0^10,^14.0^20,^23]pentacosa-1(23),2(25),3,5,17(24),18,21-heptaen-11-one], the IC50 is reported as < 10 nM.
With `CO[C@@H]1C[C@H]2COc3ccn4ncc(c4n3)-c3cc(cc(OCC4CC4)c3)NCCN2C1=O` [Example 45, (12R,14S)-4-(cyclopropylmethoxy)-12-methoxy-16-oxa-7,10,20,21,24-pentaazapentacyclo[15.5.2.1^2,6.0^10,^14.0^20,^23]pentacosa-1(23),2,4,6(25),17(24),18,21-heptaen-11-one] the IC50 was 100 to 11000 nM.
